pIC50: −log10 of the molar value.
Legend:
AA = molecular target: T1, AA (Homo sapiens, UniProt O14965); assay: AA IC50 (Table 1; no method given); format: biochemical; details: Table 2, AurA IC50; class symbols; read-out: AurA IC50
T1 sequence (O14965 1-403): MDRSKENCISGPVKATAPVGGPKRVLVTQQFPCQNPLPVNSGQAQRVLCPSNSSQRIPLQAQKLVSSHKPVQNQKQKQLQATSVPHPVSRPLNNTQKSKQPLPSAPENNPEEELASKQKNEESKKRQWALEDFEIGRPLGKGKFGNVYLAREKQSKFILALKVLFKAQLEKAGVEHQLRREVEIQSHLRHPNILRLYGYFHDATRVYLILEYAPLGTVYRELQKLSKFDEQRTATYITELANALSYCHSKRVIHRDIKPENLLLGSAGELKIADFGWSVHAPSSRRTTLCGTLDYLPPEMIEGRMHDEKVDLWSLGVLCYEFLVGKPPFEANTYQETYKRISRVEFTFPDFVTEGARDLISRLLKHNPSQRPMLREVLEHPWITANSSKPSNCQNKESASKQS

PLK1 = PLK1 (Homo sapiens, UniProt P53350); assay: PLK1 protein kinase assay (CDC25C phosphorylation, [γ-32P]-ATP); format: biochemical; details: Table 2, PLK1 IC50; class symbols; read-out: PLK1 IC50
Sequence of PLK1 (P53350 whole entry): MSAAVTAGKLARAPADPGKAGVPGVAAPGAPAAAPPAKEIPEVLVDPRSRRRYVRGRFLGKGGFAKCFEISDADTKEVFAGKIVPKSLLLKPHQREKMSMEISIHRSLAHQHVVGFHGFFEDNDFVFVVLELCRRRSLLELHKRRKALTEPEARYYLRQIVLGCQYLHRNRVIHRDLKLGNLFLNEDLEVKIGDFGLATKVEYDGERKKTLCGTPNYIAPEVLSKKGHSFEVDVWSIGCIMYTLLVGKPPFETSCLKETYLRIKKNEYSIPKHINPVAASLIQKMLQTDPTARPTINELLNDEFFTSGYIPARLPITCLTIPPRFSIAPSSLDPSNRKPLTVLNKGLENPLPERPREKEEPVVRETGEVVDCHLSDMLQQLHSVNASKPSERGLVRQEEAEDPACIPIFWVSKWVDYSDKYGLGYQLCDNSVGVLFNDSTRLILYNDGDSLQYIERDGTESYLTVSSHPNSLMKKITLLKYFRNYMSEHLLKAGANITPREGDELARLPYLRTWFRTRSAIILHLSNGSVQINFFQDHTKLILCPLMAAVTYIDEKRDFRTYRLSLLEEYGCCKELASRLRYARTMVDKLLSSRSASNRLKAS

| Structure (SMILES) | pIC50 (AA) | pIC50 (PLK1) |
| --- | --- | --- |
| CC1CN(C2CCCC2)c2nc(Nc3ccc4c(c3)CS(=O)(=O)C4)ncc2N(C)C1=O (stereo not drawn) [compound 76, 9-Cyclopentyl-2-(2,2-dioxo-2,3-dihydro-1H-2lambda*6*-benzo[c]thiophen-5-ylamino)-5,7-dimethyl-5,7,8,9-tetrahydro-pyrimido[4,5-b][1,4]diazepin-6-one] | > 7.00 | > 6.00 |
| CN1C(=O)C(C)(C)CN(C2CCCC2)c2nc(Nc3ccc4c(c3)CS(=O)(=O)C4)ncc21 [compound 77, 9-Cyclopentyl-2-(2,2-dioxo-2,3-dihydro-1H-2lambda*6*-benzo[c]thiophen-5-ylamino)-5,7,7-trimethyl-5,7,8,9-tetrahydro-pyrimido[4,5-b][1,4]diazepin-6-one] | > 6.00 | > 6.00 |
| CN1C(=O)C2(CC2)CN(C2CCCC2)c2nc(Nc3ccc4c(c3)CS(=O)(=O)C4)ncc21 [compound 78, (9-Cyclopentyl-2-(2,2-dioxo-2,3-dihydro-1H-2lambda*6*-benzo[c]thiophen-5-ylamino)5-methyl-6-oxo-6,7,8,9-tetrahydro-5H-spiro[pyrimido[4,5-b][1,4]diazepin-3,1′-cyclopropane]] | > 7.00 | > 6.00 |
| CN1C(=O)CCN(C2CCCC2)c2nc(Nc3ccc(C(N)=O)cc3)ncc21 [compound 83, 4-(9-Cyclopentyl-5-methyl-6-oxo-6,7,8,9-tetrahydro-5H-pyrimido[4,5-b][1,4]diazepin-2-ylamino)-benzamide] | > 7.00 | > 6.00 |
| CN1C(=O)C2(CC2)CN(C2CCCC2)c2nc(Nc3ccc(C(=O)O)cc3)ncc21 [compound 84, 4-(9-Cyclopentyl-5-methyl-6-oxo-6,7,8,9-tetrahydro-5H-spiro[pyrimido[4,5-b][1,4]diazepin-3,1′-cyclopropane]-2-ylamino)-benzoic acid] | > 5.00 | > 6.00 |
| CN(C)C(=O)c1ccc(Nc2ncc3c(n2)N(C2CCCC2)CCC(=O)N3C)cc1 [compound 85, 4-(9-Cyclopentyl-5-methyl-6-oxo-6,7,8,9-tetrahydro-5H-pyrimido[4,5-b][1,4]diazepin-2-ylamino)-N,N-dimethyl-benzamide] | > 7.00 | > 5.00 |
| CC(=O)NCc1ccc(Nc2ncc3c(n2)N(C2CCCC2)CCC(=O)N3C)cc1 [compound 86, N-[4-(9-Cyclopentyl-5-methyl-6-oxo-6,7,8,9-tetrahydro-5H-pyrimido[4,5-b][1,4]diazepin-2-ylamino)-benzyl]-acetamide] | > 7.00 | > 5.00 |
| CNC(=O)c1ccc(Nc2ncc3c(n2)N(C2CCCC2)CCC(=O)N3C)c(OC)c1 [compound 87, 4-(9-Cyclopentyl-5-methyl-6-oxo-6,7,8,9-tetrahydro-5H-pyrimido[4,5-b][1,4]diazepin-2-ylamino)-3-methoxy-N-methyl-benzamide] | > 5.00 | > 7.00 |
| COc1cc(C(=O)N(C)C)ccc1Nc1ncc2c(n1)N(C1CCCC1)CCC(=O)N2C [compound 88, 4-(9-Cyclopentyl-5-methyl-6-oxo-6,7,8,9-tetrahydro-5H-pyrimido[4,5-b][1,4]diazepin-2-ylamino)-3-methoxy-N,N-dimethyl-benzamide] | > 5.00 | > 6.00 |
| COc1cc(C(N)=O)ccc1Nc1ncc2c(n1)N(C1CCCC1)CCC(=O)N2C [compound 89, 4-(9-Cyclopentyl-5-methyl-6-oxo-6,7,8,9-tetrahydro-5H-pyrimido[4,5-b][1,4]diazepin-2-ylamino)-3-methoxy-benzamide] | > 5.00 | > 7.00 |
| CC(=O)NCc1cccc(Nc2ncc3c(n2)N(C2CCCC2)CCC(=O)N3C)c1 [compound 90, N-[3-(9-Cyclopentyl-5-methyl-6-oxo-6,7,8,9-tetrahydro-5H-pyrimido[4,5-b][1,4]diazepin-2-ylamino)-benzyl]-acetamide] | > 6.00 | > 5.00 |
| CN1C(=O)CCN(C2CCCC2)c2nc(Nc3cccc(CN)c3)ncc21 [compound 91, 2-(3-Aminomethyl-phenylamino)-9-cyclopentyl-5-methyl-5,7,8,9-tetrahydro-pyrimido[4,5-b][1,4]diazepin-6-one] | > 6.00 | > 5.00 |
